Measurements reported in patent publication US20220362174A1, “Use of R-enantiomer Beta2-agonists for prevent and treatment of pulmonary inflammation and inflammatory remodeling for reduced adverse effects” (priority 2019, published 2022).
“Also recorded” adds a separate entry of the source.

What was measured:
[1] = tested on: OVA-sensitized/OVA-challenged mice; test: Airway responsiveness to methacholine by whole-body plethysmography (Penh) in OVA sensitized/challenged asthma model; assay type: in vivo; conditions: for airway bronchoconstriction/hyperactivity (Penh) in response to increased doses of Mch: Mch 2, 10, 20 mg/mL aerosol, rac-ter at double dose of R-ter
Description: (§1) OVA sensitized/challenged asthma model Mice were sensitized and challenged with ovalbumin (OVA) or normal saline. Briefly, mice were sensitized by intraperitoneal (i.p.) injection of 0.2 mL of 2% aluminum hydroxide (ALUM) gel containing 10 μg of OVA antigen on days 0 and 14. On days 21, 22 and 23, the mice were challenged with 1% OVA in saline (0.01 g/mL) for 20 min via. a nebulizer (PART Turbo boy). On day 26, a 20 min nebulized OVA challenge with 5% OVA in saline (0.05 g/mL) was conducted. The control group received 0.2 mL of saline with 2% ALUM administered intraperitoneally on days 0 and 14 before receiving 20 min nebulized normal saline without OVA on days 21, 22, 23 and 26.
In vivo airway responsiveness to methacholine (Mch) was assessed on day 28 in conscious, freely moving, spontaneously breathing mice by a whole-body plethysmography (Buxco Electronics Inc.). Mice were challenged with aerosolized saline or increasing concentrations of Mch (2, 10, 20 mg/mL) administered by an ultrasonic nebulizer for 2 min. Before Mch challenge, a 20 μL drug aerosol or saline was given to the mice because of the short-acting bronchodilating effect of terbutaline. The degree of bronchoconstriction was expressed as enhanced pause (Penh), a calculated dimensionless value that correlates with measurement of airway resistance, impedance, and intrapleural pressure. Penh values were recorded and averaged for 4 min after each nebulization challenge.

[2] = tested on: OVA-sensitized/OVA-challenged mice; test: Whole blood analysis and eosinophils counts in BAL fluid; assay type: in vivo; conditions: for per cent of eosinophil counts in blood and BALF: OVA asthma mice after repeated inhalation
Description: as §1
After Methacholine challenge, mice were anesthetized, blood was collected for hematology analysis. Part of the collected blood was transferred to a heparinized Eppendorf tube, gently mixed and centrifuged under 845×g at 4° C. for 10 min to isolate plasma specimen for further analysis. Broncho alveolar lavage (BAL) was performed on the right lung using 0.3 mL of phosphate buffered saline (PBS) for four times. The saline was instilled into the lungs and allowed to equilibrate for 30 s before recovery, after centrifugation supernatants were stored at −80° C. for further cytokines analysis while cell pellet was suspended in 0.5 ml PBS and the eosinophils counts were performed using Wright's stain. Then all the organs (liver, right lung lobe, spleen, kidneys, heart, brain) were excised surgically and washed totally with ice-cold PBS to clear the blood and then blotted dry with filter paper. These tissue specimens were then accurately weighted and stored at −80° C. for detecting the drug distribution by LC-MS/MS. White blood cell (WBC) counts and differential WBC counts were analyzed using a ProCyte Dx Hematology Analyzer (IDEXX Laboratories) in 4 h after blood collection.

[3] = tested on: OVA-sensitized/OVA-challenged mice; test: Lung histopathology (H&E, PAS, Masson) after R-, S-, rac-terbutaline; assay type: in vivo; conditions: for PAS stain of lung tissues: inflammatory and histopathological changes, collagen deposition: Example 3, vs model; for wall thickness of vessels / inflammatory remodeling processes: repeated inhalation, OVA mice; for PAS and Masson staining: subepithelial matrix glycoproteins, goblet cell hyperplasia, collagen deposition: vs OVA group; for smooth muscle hypertrophy, thickness of bronchial and vascular smooth muscle layer: vs OVA-treated mice
Description: as §1
Left lung tissue was obtained for histopathology and fixed in 10% formalin for 24 h, followed by paraffin-embedded and then were sectioned at 4 μm for routine staining with hematoxylin and eosin (H&E, Solarbio, Beijing, China), or with periodic acid-Schiff (PAS, Solarbio, Beijing, China), or submitted to Masson's trichrome staining (Baso, Zhuhai, China). Images of the stained lung sections were obtained by an Axisplus image-capturing system (Zeiss, Germany) and then a minimum of 3 bronchi (luminal diameter, 150-500 μm) were analyzed per mice for various parameters using an image analyzing computer system (IPP) by pathologists blinded to grouping. Histological score, airway smooth muscle thickness, PAS score (goblet cells hyperplasia), and collagen deposition were evaluated by a semi-quantitative scoring method.

[4] = tested on: OVA-sIgE; test: Measurement of OVA-sIgE in plasma (ELISA); assay type: in vivo, mice; conditions: vs OVA group
Description: as §1
OVA-sIgE in plasma was measured using an enzyme-linked immunosorbent assay (ELISA) kit following the manufacturer's specification.

[5] = tested on: Th2 cytokines (IL-4, IL-5, IL-13); test: Analysis of cytokine levels in BAL fluid (ELISA); assay type: in vivo, mice; conditions: for cytokines released (FIG. 3): pretreatment for 7 consecutive days; for IL-4 release in BALF / IL-13 release in BALF / IL-5 in BALF: vs OVA group
Description: as §1
BAL fluid samples were analyzed for the concentrations of mouse IL-4 and IL-5 using commercial ELISA kits according to the manufacturers instructions (R&D Systems, Minneapolis, Minn.). IL-13 was assayed in BAL fluid with a mouse IL-13 immunoassay kit (Abeam, Cambridge, UK) following the manufacturer's protocol.

[6] = tested on: NF-κB; test: mRNA of NF-κB in the lung by quantitative real-time PCR; assay type: in vivo, mice; conditions: vs OVA group
Description: as §1
The level of mRNA of NF-κB in the lung were analyzed by quantitative real-time PCR analysis. The total RNA was extracted from lung tissue using RNaEX™ Total RNA Isolation Kit (Generay Biotech). The quality and quantity of RNA samples were assessed by NanoDrop ND-2000c spectrophotometer (Thermo Fisher Scientific, Inc., Wilmington, Del.). Total RNA (1 μg) was reverse transcribed into cDNA using cDNA Reverse Transcription Kit (Vazyme Biotech, Nanjing, China) according to the manufacturer's instruction. Real-time PCR reactions were performed using the 7500 real-time-PCR system (Applied Biosystems, Foster City, Calif., USA) with AceQ qPCR SYBR Green Master Mix (Vazyme Biotech, Nanjing, China). […]

[7] = tested on: p38 MAPK; test: Western blot of lung tissue: p38 MAPK phosphorylation; assay type: in vivo, mice; conditions: vs OVA group
Description: as §1
(§2) Total protein from lung tissue was extracted according to the guidelines of manufacturer (Beyotime, China) and the concentrations were determined by BCA assay (Pierce). Primary antibodies against p38 MAPK (CST #8690), p-p38 MAPK (Thr180/Tyr182, CST #4511), NF-κB p65 (GeneTex #GTX102090), p-NF-κB p65 (S536, CST #3033) and GAPDH (Affinity #AF7021) as a standard were purchased and used.

[8] = tested on: NF-κB p65; test: Western blot of lung tissue: NF-κB p65 phosphorylation; assay type: in vivo, mice
Description: as §1, §2

[9] = tested on: NF-κB and MARK pathways; test: NF-κB and MARK pathways, cytokines and ROS in LPS sepsis
From the text: LPS interacts with pathogen recognition receptors such as TLRs would also activate NF-κB and MARK pathways, which would further lead to an over-production of cytokines. […] The “cytokine storm” in sepsis involves in excessive release of INFs, IL-1B, IL-2,4,6,10,12, TNFa and MCP etc.
In sepsis, there are also over productions of chemokines such as ROS. […] This invention disclosed the similar effects of other RS-racemic, S-enantiomer or R-enantiomer beta2 agonists including: salbutamol, bambuterol, vilanterol, clenterol, salmeterol, formoterol, trantinterol and Indacaterol and other β2 agonists.

[10] = tested on: BALB/c mice; test: Survival study after LPS challenge (sepsis); assay type: in vivo
Description: Treatment were given intraperitoneally for 3 consecutive days. One hour after the 3rd day treatments, LPS (15 mg/kg) was administered intraperitoneally. The animals were monitored. Survival rate was then recorded every 12 h for 144 hours.

[11] = 0.5 mg/kg + LPS, Saline + LPS 90.9

SMILES | airway bronchoconstriction/hyperactivity (Penh) in response to increased doses of Mch [1] | per cent of eosinophil counts in blood and BALF [2] | PAS stain of lung tissues: inflammatory and histopathological changes, collagen deposition [3] | wall thickness of vessels / inflammatory remodeling processes [3] | PAS and Masson staining: subepithelial matrix glycoproteins, goblet cell hyperplasia, collagen deposition [3] | smooth muscle hypertrophy, thickness of bronchial and vascular smooth muscle layer [3] | OVA-sIgE level in plasma [4] | cytokines released (FIG. 3) [5] | NF-κB expression (mRNA transcript) in lung [6] | p38 MAPK phosphorylation (ratio of phosphorylated to total p38 MAPK) [7] | ratio of phosphorylated to total p65 NF-κB [8] | NF-κB and MARK pathways activated by LPS (expression or phosphorylation) ([9]; LPS sepsis) | also measured
CC(C)(C)NC[C@@H](O)c1cc(O)cc(O)c1 [S-terbutaline] | further exacerbation of airway hyperactivity | significantly increased; also recorded: significantly higher; also recorded: the highest | further enhanced; also recorded: further worsened | further increase of wall thickness of vessels | further exacerbated | further enhanced | further increase | did the opposite | further enhanced | enhanced | enhanced | further enhanced | lung compliance ([1]; OVA induced asthma mice, baseline): reduced lung compliances; IL-4 release in BALF [5]: further increase; IL-13 release in BALF [5]: further increase; IL-4 release in BALF ([5]; listed as S-ter): further increased; IL-13 release in BALF ([5]; listed as S-ter): further increased; p38 MAPK phosphorylation (ratio of phosphorylated to total p38 MAPK) ([7]; listed as S-ter): further increased
CC(C)(C)NC[C@H](O)c1cc(O)cc(O)c1 [R-terbutaline] | attenuated significantly | significantly reduced | significantly ameliorate; also recorded: significantly alleviated or improved | significantly diminished | reversed and recovered toward normal | suppressed | markedly inhibited | significantly inhibited the release | effectively inhibited | decreased | decreased | significantly inhibited | baseline Penh value (baseline airway reactivity) ([1]; exposure to saline, after 7 days inhalation pretreatment, OVA group 0.80±0.12, Control group 0.55±0.08, rac-terbutaline at double molar amount): significantly reduce; influx of eosinophils into BALF ([2]; OVA asthma mice): significantly inhibited; degree of inflammatory cell infiltration (H&E, histological score) ([3]; rac-terbutaline at double dose): ameliorated; IL-5 in BALF [5]: significantly inhibited; IL-5 in BALF ([5]; listed as R-ter): significantly reduced; p38 MAPK phosphorylation (ratio of phosphorylated to total p38 MAPK) ([7]; listed as R-ter): markedly suppressed; Percent of death after LPS challenges, 12 h ([10]; 0.5 mg/kg + LPS, Saline + LPS 0): 0%; Percent of death after LPS challenges, 24 h ([10]; 0.5 mg/kg + LPS, Saline + LPS 36.4): 18.2%; Percent of death after LPS challenges, 36 h ([10]; 0.5 mg/kg + LPS, Saline + LPS 72.7): 27.3%; Percent of death after LPS challenges, 48 h [10, 11]: 36.4%; Percent of death after LPS challenges, 72 h [10, 11]: 36.4%; Percent of death after LPS challenges, 144 h [10, 11]: 36.4%; rate of mortality/death after LPS challenge (in words) ([10]; in comparison of LPS challenged group without pretreatment (mortality 90.9%)): greatly reduced or even diminished; over production of inducible NO (iNO) and another ROS ([9]; LPS sepsis): significantly prevent and inhibit; production or release of cytokines (cytokine storm) ([9]; sepsis): significantly reduced
